For assay [1], the species on record is Homo sapiens. The assay is described as follows: Inhibition of recombinant human RAD51/p53 (unknown origin) interaction at 200 uM measured by ELISA assay.
For assay [2], the target named is T1, DNA repair protein RAD51 homolog 1 (Homo sapiens) (UniProt Q06609).
T1 sequence (whole entry): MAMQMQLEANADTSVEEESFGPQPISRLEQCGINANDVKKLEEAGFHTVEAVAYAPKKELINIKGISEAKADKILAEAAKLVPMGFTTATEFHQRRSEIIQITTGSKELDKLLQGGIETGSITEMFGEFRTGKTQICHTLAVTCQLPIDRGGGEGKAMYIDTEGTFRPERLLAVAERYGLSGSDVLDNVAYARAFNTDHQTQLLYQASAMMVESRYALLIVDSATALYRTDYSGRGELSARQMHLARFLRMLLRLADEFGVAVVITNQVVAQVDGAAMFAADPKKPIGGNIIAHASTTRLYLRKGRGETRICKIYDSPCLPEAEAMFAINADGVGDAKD
The assay is described as follows: Inhibition of RAD51 in human U2OS cells at 20 to 80 uM measured by direct repeats green fluorescent protein (DR-GFP) reporter assay. Conditions: dose 20-80 µM. The format is cell-based.

The source made the active and inactive calls. The calls are words filed in the database; no cut-off is given here.

Regarding `Cc1cc(C)c(CNC(=O)c2cccc(S(=O)(=O)N3C[C@H](C)C[C@@H](C)C3)c2)c(=O)[nH]1`, the inhibition entry in assay [1] was “Active”.

Regarding `Cc1ccc(-n2nnnc2SCC(=O)Nc2oc(C)c3c(C)n[nH]c(=O)c23)c(C)c1`, the inhibition entry in assay [1] and in assay [2] was “Active” each time.

As for `Nc1ncnc2c1ncn2[C@@H]1O[C@H](COP(=O)(O)OP(=O)(O)OP(=O)(O)O)[C@@H](O)[C@H]1O`, the inhibition entry in assay [1] was “Active”.

For `Cc1c(F)cc(C(N)=O)cc1NC(=O)c1cccc(S(=O)(=O)Nc2ccccc2F)c1`, in assay [1], the inhibition result is “Active”.

As for `C[C@@H]1Cc2ccccc2N1C(=O)COc1ccc(N(C)S(=O)(=O)c2ccccc2)cc1`, the inhibition result in assay [1] and in assay [2] was “Active” throughout.

Consider `Nc1ncnc2c1ncn2[C@@H]1O[C@H](COP(=O)(O)OP(=O)(O)NP(=O)(O)O)[C@@H](O)[C@H]1O`, for which the inhibition entry in assay [1] was “Active”.

Source of the values: ChEMBL document CHEMBL5113497, “Comparison of ATP-binding pockets and discovery of homologous recombination inhibitors” (Bioorg Med Chem, 2022).
